Starred links: 1 amine or outer side, 2 acyl side, 3 side chain; linkers in the order of their positions; H or OH if unused. Positions of bridges follow the written chain, without caps; N, C: chain ends. Non-standard residues stand in square brackets, D forms with d. Residues, ends and D or L forms follow the SMILES beside them. *: point of attachment. X1 = CC(C)(C)OC(=O)N[C@H](CCC(=O)[*:1])C(=O)[*:2]; sY = N[C@@H](Cc1ccc(OS(=O)(=O)O)cc1)C(=O)O; Nle = CCCC[C@H](N)C(=O)O; Boc = CC(C)(C)OC(=O)*

Here are results for four compounds from patent US4985406A (Institut National de la Sante et de La Recherche Medicale …, priority 1987, dated 1991).

Assay [1] concerns the target cholecystokininergic receptors of the central nervous system (guinea-pig brain cortex). Nature of the assay: Binding test, competition with [3H]BOC-[NLe28,31]CCK27-33 on guinea-pig brain cortex. As to conditions: for Ki: [3H]BOC-[NLe28,31]CCK27-33 at 0.2 nM, guinea-pig brain cortex; for Selectivity factor: ratio given as drawing 11, matches KI pancreatic acini / KI cortex.
Method: (§1) The products of the invention are tested in competitive experiments with respect to the ligand [^3 H]BOC-[NLe^28,31 ]CCK27-33 on guinea-pig brain cortex and guinea-pig pancreatic acini. […] The [^3 H]BOC-[NLe^28,31 ]CCK27-33 was used at a concentration of 0.2 nM for the brain and 0.5 nM for the pancreas.

Assay [2] addresses guinea-pig pancreatic acini. Nature of the assay: Test of release of pancreatic amylase. The conditions noted are these: acini incubated 30 minutes at 37° C.; mean of 3 independent experiments in triplicate; read-out: Secretion of pancreatic amylase by guinea-pig acini, agonist activity EC50. The format is cell-based. The procedure: J. Physiol., 235, E 743 (1978). The acini are incubated for 30 minutes at 37° C. in the presence of the test product at different doses, according to the method described by GARDNER and JACKSON, J. Physiol., 270, 439 (1977). The amylase activity is determined using the PHADEBAS reagent (Pharmacia) according to the method described by CESKA et al., Experientia, 25, 555 (1969).
The values shown in this table represent the mean of 3 independent experiments, each performed in triplicate.

The subject of another assay is guinea-pig ileum. The assay can be described thus: Test of contraction-inducing activity on guinea-pig ileum. The conditions noted are these: mean (±S.E.M.) of 3 independent experiments; read-out: Contraction-inducing activity on guinea-pig ileum, agonist activity EC50. The procedure: This test is carried out according to the method described by HUTCHINSON et al., Eur. J. Pharmacol., 69, 87 (1981). Strips of guinea-pig ileum of the terminal portion are rapidly removed and attached in the cell of an isometric gauge containing 25 cm^3 of Tyrode's solution. The solution is maintained at 37° C. while a stream of a gas composed of 95% oxygen and 5% CO2 is passed through bubble by bubble. The test compounds are tested under the conditions described by RUIZ-GAYO et al., Peptides, 6, 415 (1985).
The values shown in this table for the agonist activity represent the mean (±S.E.M.) of 3 independent experiments.

Assay [3] concerns the target T1, peripheral cholecystokininergic receptors (guinea-pig pancreatic acini) (Cavia porcellus, UniProt Q63931).
T1 construct: on guinea-pig brain cortex and guinea-pig pancreatic acini; from tissue; host or cells: guinea-pig pancreatic acini
T1 sequence (Q63931 1-430): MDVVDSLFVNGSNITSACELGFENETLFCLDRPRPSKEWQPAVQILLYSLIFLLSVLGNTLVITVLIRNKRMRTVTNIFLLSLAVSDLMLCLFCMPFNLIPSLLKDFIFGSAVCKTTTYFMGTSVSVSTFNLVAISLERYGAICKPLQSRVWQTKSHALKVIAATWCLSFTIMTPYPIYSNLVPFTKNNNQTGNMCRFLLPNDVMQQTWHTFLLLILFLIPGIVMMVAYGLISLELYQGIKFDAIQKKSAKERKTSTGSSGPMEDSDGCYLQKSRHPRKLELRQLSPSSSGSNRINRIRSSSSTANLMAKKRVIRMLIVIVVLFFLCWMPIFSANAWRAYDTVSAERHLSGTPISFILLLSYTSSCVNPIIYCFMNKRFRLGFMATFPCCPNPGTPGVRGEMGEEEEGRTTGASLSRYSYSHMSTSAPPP
Nature of the assay: Binding test, competition with [3H]BOC-[NLe28,31]CCK27-33 on guinea-pig pancreatic acini. The conditions noted are these: [3H]BOC-[NLe28,31]CCK27-33 at 0.5 nM.
Method: as §1

Broadly, the Ki is a dissociation constant, usually derived from enzyme kinetics or from competition with a known ligand. A higher Ki goes with lower affinity. Usually EC50 stands for the concentration giving half of the maximal effect. Take `CCCC[C@H](NC(=O)[C@H](Cc1c[nH]c2ccccc12)NC(=O)[C@H]1CCCCNC(=O)C[C@@H](NC(=O)OC(C)(C)C)C(=O)N[C@@H](Cc2ccc(OS(=O)(=O)O)cc2)C(=O)N[C@@H](CCCC)C(=O)N1)C(=O)N[C@@H](CC(=O)O)C(=O)N[C@@H](Cc1ccccc1)C(N)=O` [Example 5] (Boc-[dD][sY][Nle][dK]W[Nle]DF-NH2; lactam 1-4; N-terminus assumed): in assay [1], the Ki turned out to be 5.1 nM. In addition, the Selectivity factor in assay [1] amounted to 179. The EC50 in assay [2] is < 10000 nM; in the assay on guinea-pig ileum, > 10000 nM.

On to `CCCC[C@H](NC(=O)[C@H](Cc1c[nH]c2ccccc12)NC(=O)[C@H]1CCCCNC(=O)CC[C@@H](NC(=O)OC(C)(C)C)C(=O)N[C@@H](Cc2ccc(OS(=O)(=O)O)cc2)C(=O)N[C@@H](CCCC)C(=O)N1)C(=O)N[C@@H](CC(=O)O)C(=O)N[C@@H](Cc1ccccc1)C(N)=O` [Example 7] (Boc-[dE][sY][Nle][dK]W[Nle]DF-NH2; lactam 1-4; N-terminus assumed), for which, in assay [1], the Ki is 6.3 nM and the Selectivity factor worked out at 160. Moreover, the EC50 in the assay on guinea-pig ileum was > 10000 nM.

For `CCCC[C@H](NC(=O)[C@H](Cc1c[nH]c2ccccc12)NC(=O)[C@H]1CCCCNC(=O)[C@H](NC(=O)OC(C)(C)C)CCC(=O)N[C@@H](Cc2ccc(O)cc2)C(=O)N[C@@H](CCCC)C(=O)N1)C(=O)N[C@@H](CC(=O)O)C(=O)N[C@@H](Cc1ccccc1)C(N)=O` [Example 15] (Y[Nle][dK]W[Nle]DF-NH2; linker N-3 via X1), the affinity in assay [3] corresponds to a Ki of 860 nM.

On to `CCCC[C@H](NC(=O)[C@H](Cc1c[nH]c2ccccc12)NC(=O)[C@H]1CCCCNC(=O)[C@H](NC(=O)OC(C)(C)C)CCC(=O)N[C@@H](Cc2ccc(OS(=O)(=O)O)cc2)C(=O)N[C@@H](CCCC)C(=O)N1)C(=O)N[C@@H](CC(=O)O)C(=O)N[C@@H](Cc1ccccc1)C(N)=O` [Example 16] ([sY][Nle][dK]W[Nle]DF-NH2; linker N-3 via X1; C-terminus assumed), for which, in assay [1], the Ki came to 0.49 nM and the Selectivity factor is listed as 1970. Besides, the EC50 in the assay on guinea-pig ileum was > 10000 nM.
